Patent publication EP4678638A1, “NEW E3 UBIQUITIN LIGASE LIGAND, PROTEIN DEGRADATION AGENT AND USE THEREOF” (priority 2023, dated 2024)

What was measured:
MM.1S = assay: CCK-8 proliferation, MM.1S; format: cell-based; settings: Homo sapiens, MM1.S; Table B10, compounds designed based on the IRAK4 inhibitors; MM.1S cells; read-out: Inhibitory activity (IC50, nM) on tumor cell proliferation, MM.1S
In short: (§1)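 Cells seeded, then after 24 h treated with 10 concentrations (top 10 µM, 5-fold serial dilution) for a line-specific time at 37°C, 5% CO2. Viability read by CCK-8; IC50 fitted from growth-inhibition curves.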

IRAK4 = target: T1, IRAK4 (Homo sapiens, UniProt Q9NWZ3); assay: Western blot degradation of IRAK4 (hPBMC); format: cell-based; settings: Table D1
T1 construct: evaluate the effects of the compounds of the present disclosure on the expression of target proteins in cells; endogenous in cells; host or cells: hPBMC
T1 sequence (Q9NWZ3 1-460): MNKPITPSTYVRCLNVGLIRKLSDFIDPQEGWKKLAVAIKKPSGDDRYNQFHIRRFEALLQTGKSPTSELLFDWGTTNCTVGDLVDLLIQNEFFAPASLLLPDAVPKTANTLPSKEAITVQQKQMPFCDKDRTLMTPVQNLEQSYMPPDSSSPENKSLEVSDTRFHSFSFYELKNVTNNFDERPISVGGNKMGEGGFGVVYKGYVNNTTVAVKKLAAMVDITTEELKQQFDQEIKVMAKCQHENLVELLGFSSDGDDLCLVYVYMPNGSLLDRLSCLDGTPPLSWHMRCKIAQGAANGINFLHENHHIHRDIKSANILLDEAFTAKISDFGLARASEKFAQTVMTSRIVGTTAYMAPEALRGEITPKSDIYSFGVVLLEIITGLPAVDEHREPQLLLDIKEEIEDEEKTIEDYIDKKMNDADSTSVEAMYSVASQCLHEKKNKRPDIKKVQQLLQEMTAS
In short: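 Quantification by ImageJ densitometry of Western blot bands: DC50 is the fitted concentration halving band intensity relative to DMSO. Percent remaining uses internal-control normalization, and degradation rate is its complement.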

[1] = target: T2, human Cereblon WT GST-tagged protein (Homo sapiens, UniProt Q96SW2); assay: CRBN binding, HTRF (CEREBLON BINDING kit); settings: Table II-2, CRBN binding screening, HTRF; for inhibition at 0.5 µM: read-out: Inhibition rate (%) at 0.5µM; for inhibition at 2 µM: read-out: Inhibition rate (%) at 2 µM
T2 construct: purchased CISBIO 64BDCRBNPEH
T2 sequence (Q96SW2 whole entry): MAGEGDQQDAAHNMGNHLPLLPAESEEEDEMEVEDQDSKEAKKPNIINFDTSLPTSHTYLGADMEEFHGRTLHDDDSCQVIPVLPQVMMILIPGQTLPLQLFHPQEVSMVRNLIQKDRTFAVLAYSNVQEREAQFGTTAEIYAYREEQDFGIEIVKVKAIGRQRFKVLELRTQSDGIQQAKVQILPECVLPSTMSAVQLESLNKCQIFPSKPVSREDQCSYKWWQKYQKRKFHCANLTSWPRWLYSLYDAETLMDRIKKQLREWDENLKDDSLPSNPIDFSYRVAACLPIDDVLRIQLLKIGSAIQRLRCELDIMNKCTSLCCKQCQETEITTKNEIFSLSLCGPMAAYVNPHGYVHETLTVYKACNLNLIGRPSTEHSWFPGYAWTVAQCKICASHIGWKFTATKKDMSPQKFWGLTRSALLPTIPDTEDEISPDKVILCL
In short: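 Competitive HTRF: GST-tagged human WT Cereblon mixed with compound, Thalidomide-Re tracer and GST Eu antibody, incubated 3 h at room temperature. Signals read at 620 and 665 nm.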

SR = assay: CCK-8 proliferation, SR; format: cell-based, Human; settings: Homo sapiens; Table B10, compounds designed based on the IRAK4 inhibitors; SR cells; read-out: Inhibitory activity (IC50, nM) on tumor cell proliferation, SR
In short: as §1

O=C1CCN(c2ccc(CN3CCC(n4cc(NC(=O)c5coc(-c6ccnc(NCC7CC7)c6)n5)c(C(F)F)n4)CC3)cc2)C(=O)N1 [GT-04956, 2-(2-((cyclopropylmethyl)amino)pyridin-4-yl)-N-(3-(difluoromethyl)-1-(1-(4-(2,4-dioxotetrahydropyrimidin-1(2H)-yl)benzyl)piperidin-4-yl)-1H-pyrazol-4-yl)oxazole-4-carboxamide]
IC50 (MM.1S): 100 to 500 nM | Degradation of substrate protein IRAK4 (substrate protein remaining %) (IRAK4): A (A is defined as 0% ≤ substrate protein remaining % ≤ 80%)

COc1cc2nn(C3CCN(Cc4cncc(N5CCC(=O)NC5=O)c4)CC3)cc2cc1NC(=O)c1cccc(C(F)(F)F)n1 [GT-07533, N-(2-(1-((5-(2,4-dioxotetrahydropyrimidin-1(2H)-yl)pyridin-3-yl)methyl)piperidin-4-yl)-6-methoxy-2H-indazol-5-yl)-6-(trifluoromethyl)picolinamide]
inhibition at 0.5 µM [1]: 10 to 20% | inhibition at 2 µM [1]: 53 to 60% | Degradation of substrate protein IRAK4 (substrate protein remaining %) (IRAK4): A (A is defined as 0% ≤ substrate protein remaining % ≤ 80%)

CC(C)Nc1cc(-n2ccc3cc(C#N)cnc32)ncc1C(=O)NC1CCN(Cc2cc(C3CCC(=O)NC3=O)cnc2F)CC1 (stereo not shown) [GT-07544, 6-(5-cyano-1H-pyrrolo[2,3-b]pyridin-1-yl)-N-(1-((5-(2,6-dioxopiperidin-3-yl)-2-fluoropyridin-3-yl)methyl)piperidin-4-yl)-4-(isopropylamino)nicotinamide]
inhibition at 0.5 µM [1]: 53 to 60% | inhibition at 2 µM [1]: 80 to 100% | Degradation of substrate protein IRAK4 (substrate protein remaining %) (IRAK4): A (A is defined as 0% ≤ substrate protein remaining % ≤ 80%)

O=C1CCN(c2ccc(CN3CCC(n4cc(NC(=O)c5coc(-c6ccnc(NCC7CC7)c6)n5)c(C(F)F)n4)CC3)nc2)C(=O)N1 [GT-04958, 2-(2-((cyclopropylmethyl)amino)pyridin-4-yl)-N-(3-(difluoromethyl)-1-(1-((5-(2,4-dioxotetrahydropyrimidin-1(2H)-yl)pyridin-2-yl)methyl)piperidin-4-yl)-1H-pyrazol-4-yl)oxazole-4-carboxamide]
IC50 (MM.1S): 100 to 500 nM | Degradation of substrate protein IRAK4 (substrate protein remaining %) (IRAK4): A (A is defined as 0% ≤ substrate protein remaining % ≤ 80%)

CC(C)(O)c1cc2nn(C3CCN(Cc4cncc(C5CCC(=O)NC5=O)c4)CC3)cc2cc1NC(=O)c1cccc(C(F)(F)F)n1 (stereo not shown) [GT-07543, N-(2-(1-((5-(2,6-dioxopiperidin-3-yl)pyridin-3-yl)methyl)piperidin-4-yl)-6-(2-hydroxypropan-2-yl)-2H-indazol-5-yl)-6-(trifluoromethyl)picolinamide]
inhibition at 0.5 µM [1]: 30 to 40% | inhibition at 2 µM [1]: 60 to 80% | Degradation of substrate protein IRAK4 (substrate protein remaining %) (IRAK4): A (A is defined as 0% ≤ substrate protein remaining % ≤ 80%)

COc1cc2nn(C3CCN(Cc4cc(C5CCC(=O)NC5=O)cnc4F)CC3)cc2cc1NC(=O)c1cccc(C(F)(F)F)n1 (stereo not shown) [GT-07549, N-(2-(1-((5-(2,6-dioxopiperidin-3-yl)-2-fluoropyridin-3-yl)methyl)piperidin-4-yl)-6-methoxy-2H-indazol-5-yl)-6-(trifluoromethyl)picolinamide]
inhibition at 0.5 µM [1]: 40 to 53% | inhibition at 2 µM [1]: 80 to 100% | Degradation of substrate protein IRAK4 (substrate protein remaining %) (IRAK4): A (A is defined as 0% ≤ substrate protein remaining % ≤ 80%)

O=C1CCC(Nc2cccc(CN3CCN(Cc4ccc5c(c4)nc(NC(=O)c4cccc(C(F)(F)F)c4)n5C4CCC(CO)CC4)CC3)c2)C(=O)N1 (stereo not shown) [GT-04976, N-(5-((4-(3-((2,6-dioxopiperidin-3-yl)amino)benzyl)piperazin-1-yl)methyl)-1-((1s,4s)-4-(hydroxymethyl)cyclohexyl) -1H-benzo[d]imidazol-2-yl)-3-(trifluoromethyl)benzamide]
IC50 (SR): 100 to 500 nM | IC50 (MM.1S): 100 to 500 nM | Degradation of substrate protein IRAK4 (substrate protein remaining %) (IRAK4): A (A is defined as 0% ≤ substrate protein remaining % ≤ 80%)

COc1cc2nn(C3CCN(Cc4cncc(C5CCC(=O)NC5=O)c4)CC3)cc2cc1NC(=O)c1cccc(C(F)(F)F)c1 (stereo not shown) [GT-07419, N-(2-(1-((5-(2,6-dioxopiperidin-3-yl)pyridin-3-yl)methyl)piperidin-4-yl)-6-methoxy-2H-indazol-5-yl)-3-(trifluoromethyl)benzamide]
inhibition at 0.5 µM [1]: 20 to 30% | inhibition at 2 µM [1]: 53 to 60% | Degradation of substrate protein IRAK4 (substrate protein remaining %) (IRAK4): A (A is defined as 0% ≤ substrate protein remaining % ≤ 80%)

O=C1CCN(c2cccc(CN3CCN(Cc4ccc5c(c4)nc(NC(=O)c4cccc(C(F)(F)F)c4)n5[C@H]4CC[C@@H](CO)CC4)CC3)c2)C(=O)N1 [GT-04977, N-(5-((4-(3-(2,4-dioxotetrahydropyrimidin-1(2H)-yl)benzyl)piperazin-1-yl)methyl)-1-((1s,4s)-4-(hydroxymethyl)cyclohexyl) -1H-benzo[d]imidazol-2-yl)-3-(trifluoromethyl)benzamide]
IC50 (SR): 100 to 500 nM | IC50 (MM.1S): 100 to 500 nM | Degradation of substrate protein IRAK4 (substrate protein remaining %) (IRAK4): A (A is defined as 0% ≤ substrate protein remaining % ≤ 80%)

CC(C)(O)c1cc2nc(C3CCN(Cc4cc(N5CCC(=O)NC5=O)ncc4F)CC3)oc2cc1NC(=O)c1cccc(C(F)(F)F)n1 [GT-07626, N-(2-(1-((2-(2,4-dioxotetrahydropyrimidin-1(2H)-yl)-5-fluoropyridin-4-yl)methyl)piperidin-4-yl)-5-(2-hydroxypropan-2-yl)benzo[d]oxazol-6-yl)-6-(trifluoromethyl)picolinamide]
inhibition at 0.5 µM [1]: 20 to 30% | inhibition at 2 µM [1]: 60 to 80% | Degradation of substrate protein IRAK4 (substrate protein remaining %) (IRAK4): A (A is defined as 0% ≤ substrate protein remaining % ≤ 80%)

COc1cc2nn(C3CCN(Cc4ccc(C5CCC(=O)NC5=O)cn4)CC3)cc2cc1NC(=O)c1cccc(C(F)(F)F)c1 (stereo not shown) [GT-07417, N-(2-(1-((5-(2,6-dioxopiperidin-3-yl)pyridin-2-yl)methyl)piperidin-4-yl)-6-methoxy-2H-indazol-5-yl)-3-(trifluoromethyl)benzamide]
inhibition at 0.5 µM [1]: 30 to 40% | inhibition at 2 µM [1]: 60 to 80% | Degradation of substrate protein IRAK4 (substrate protein remaining %) (IRAK4): A (A is defined as 0% ≤ substrate protein remaining % ≤ 80%)

CC(C)(O)c1cc2nc(C3CCN(Cc4cncc(C5CCC(=O)NC5=O)c4)CC3)sc2cc1NC(=O)c1cccc(C(F)(F)F)n1 (stereo not shown) [GT-07624, N-(2-(1-((5-(2,6-dioxopiperidin-3-yl)pyridin-3-yl)methyl)piperidin-4-yl)-5-(2-hydroxypropan-2-yl)benzo[d]thiazol-6-yl)-6-(trifluoromethyl)picolinamide]
inhibition at 0.5 µM [1]: 20 to 30% | inhibition at 2 µM [1]: 60 to 80% | Degradation of substrate protein IRAK4 (substrate protein remaining %) (IRAK4): A (A is defined as 0% ≤ substrate protein remaining % ≤ 80%)

CC(C)(O)c1cc2nc(C3CCN(Cc4ccc(C5CCC(=O)NC5=O)cn4)CC3)oc2cc1NC(=O)c1cccc(C(F)(F)F)n1 (stereo not shown) [GT-07763, N-(2-(1-((5-(2,6-dioxopiperidin-3-yl)pyridin-2-yl)methyl)piperidin-4-yl)-5-(2-hydroxypropan-2-yl)benzo[d]oxazol-6-yl)-6-(trifluoromethyl)picolinamide]
inhibition at 0.5 µM [1]: 40 to 53% | inhibition at 2 µM [1]: 60 to 80% | Degradation of substrate protein IRAK4 (substrate protein remaining %) (IRAK4): A (A is defined as 0% ≤ substrate protein remaining % ≤ 80%)
